Results: patent US9408852B2, “Method of lowering serum uric acid levels with (S)-tofisopam” (PHARMOS CORPORATION, priority 2011, dated 2016)

Experiments:
Format in all cases: in vivo, human
[1] = test system: serum uric acid; assay: Serum uric acid in female outpatients with irritable bowel syndrome, 3 months (Comparative Example 6); parameters: Serum uric acid Actual Value, Mean / Serum uric acid Change from Baseline, Mean / Serum uric acid Actual Value, Median / Serum uric acid Change from Baseline, Median: unit not given here; conditions: for Serum uric acid Actual Value, Mean / Serum uric acid Actual Value, Median / Serum uric acid Change from Baseline, Mean / Serum uric acid Change from Baseline, Median: women with irritable bowel syndrome
Protocol: The study lasted 3 months, and patients were treated with 100 mg, 200 mg or 300 mg of enantiomerically-pure (R)-tofisopam twice a day.

[2] = test system: serum uric acid; assay: Serum uric acid in male and female outpatients with irritable bowel syndrome, 3 months (Comparative Example 5); parameters: Serum uric acid Actual Value, Mean / Serum uric acid Change from Baseline, Mean / Serum uric acid Actual Value, Median / Serum uric acid Change from Baseline, Median: unit not given here; conditions: for Serum uric acid Actual Value, Mean / Serum uric acid Actual Value, Median / Serum uric acid Change from Baseline, Mean / Serum uric acid Change from Baseline, Median: men and women with irritable bowel syndrome
Protocol: The study lasted 3 months, and patients were treated with 200 mg of (R)-tofisopam twice a day (bid).

[3] = test system: serum uric acid; assay: Serum uric acid in postmenopausal women, single- and multiple-dose study (Comparative Example 4); parameters: Serum uric acid, baseline adjusted data, Median / Serum uric acid, unadjusted data, Mean / Serum uric acid, unadjusted data, Median / Serum uric acid, baseline adjusted data, Mean: unit not given here
Protocol: In a double-blind, randomized, placebo-controlled, single- and multiple-dose study in postmenopausal women with enantiomerically-pure (R)-tofisopam, patients were treated with placebo, 100 mg once a day (qd) of (R)-tofisopam, or 200 mg qd of (R)-tofisopam for the first day of the study, and then with placebo, 100 mg twice a day (bid) of (R)-tofisopam, or 200 mg bid of (R)-tofisopam for Days 2 to 7 of the study.

[4] = 100 mg bid (qd on D 1, bid on D 2 to D 7), time 6 h
[5] = 100 mg bid (qd on D 1, bid on D 2 to D 7), time 24 h
[6] = 100 mg bid (qd on D 1, bid on D 2 to D 7), time 72 h
[7] = 100 mg bid (qd on D 1, bid on D 2 to D 7), time 143 h
[8] = 100 mg bid (qd on D 1, bid on D 2 to D 7), time 168 h
[9] = 200 mg bid (qd on D 1, bid on D 2 to D 7), time 6 h
[10] = 200 mg bid (qd on D 1, bid on D 2 to D 7), time 24 h
[11] = 200 mg bid (qd on D 1, bid on D 2 to D 7), time 72 h
[12] = 200 mg bid (qd on D 1, bid on D 2 to D 7), time 143 h
[13] = 200 mg bid (qd on D 1, bid on D 2 to D 7), time 168 h

CC[C@H]1C(C)=NN=C(c2ccc(OC)c(OC)c2)c2cc(OC)c(OC)cc21 [(R)-tofisopam]
Serum uric acid Actual Value, Mean ([1]; 100 mg BID, 3 months Endpoint): 4.94
Serum uric acid Actual Value, Median ([1]; 100 mg BID, 3 months Endpoint): 4.90
Serum uric acid Change from Baseline, Mean ([1]; 100 mg BID, 3 months Endpoint): 0.22
Serum uric acid Change from Baseline, Median ([1]; 100 mg BID, 3 months Endpoint): 0.20
Serum uric acid Actual Value, Mean ([1]; 100 mg BID, Week 12): 4.91
Serum uric acid Actual Value, Median ([1]; 100 mg BID, Week 12): 4.80
Serum uric acid Change from Baseline, Mean ([1]; 100 mg BID, Week 12): 0.23
Serum uric acid Change from Baseline, Median ([1]; 100 mg BID, Week 12): 0.20
Effect on serum uric acid levels ([1]; 100 mg, 200 mg or 300 mg twice a day, 3 months, female outpatients with irritable bowel syndrome): does not decrease
Serum uric acid Actual Value, Mean ([1]; 200 mg BID, 3 months Endpoint): 4.82
Serum uric acid Actual Value, Median ([1]; 200 mg BID, 3 months Endpoint): 4.60
Serum uric acid Change from Baseline, Mean ([1]; 200 mg BID, 3 months Endpoint): −0.19
Serum uric acid Change from Baseline, Median ([1]; 200 mg BID, 3 months Endpoint): −0.20
Serum uric acid Actual Value, Mean ([1]; 200 mg BID, Week 12): 4.82
Serum uric acid Actual Value, Median ([1]; 200 mg BID, Week 12): 4.60
Serum uric acid Change from Baseline, Mean ([1]; 200 mg BID, Week 12): −0.20
Serum uric acid Change from Baseline, Median ([1]; 200 mg BID, Week 12): −0.20
Serum uric acid Actual Value, Mean ([1]; 300 mg BID, 3 months Endpoint): 5.04
Serum uric acid Actual Value, Median ([1]; 300 mg BID, 3 months Endpoint): 5.00
Serum uric acid Change from Baseline, Mean ([1]; 300 mg BID, 3 months Endpoint): −0.05
Serum uric acid Change from Baseline, Median ([1]; 300 mg BID, 3 months Endpoint): 0.00
Serum uric acid Actual Value, Mean ([1]; 300 mg BID, Week 12): 5.02
Serum uric acid Actual Value, Median ([1]; 300 mg BID, Week 12): 4.95
Serum uric acid Change from Baseline, Mean ([1]; 300 mg BID, Week 12): −0.06
Serum uric acid Change from Baseline, Median ([1]; 300 mg BID, Week 12): −0.05
Serum uric acid levels over time ([1]; up to 3 months after initiation of treatment, 100, 200 or 300 mg twice a day): remained constant
Serum uric acid Actual Value, Mean ([2]; 200 mg bid, 3 months Endpoint): 5.20
Serum uric acid Actual Value, Median ([2]; 200 mg bid, 3 months Endpoint): 5.10
Serum uric acid Change from Baseline, Mean ([2]; 200 mg bid, 3 months Endpoint): −0.06
Serum uric acid Change from Baseline, Median ([2]; 200 mg bid, 3 months Endpoint): 0.00
Serum uric acid Actual Value, Mean ([2]; 200 mg bid, Day 7): 5.18
Serum uric acid Actual Value, Median ([2]; 200 mg bid, Day 7): 5.00
Serum uric acid Change from Baseline, Mean ([2]; 200 mg bid, Day 7): −0.05
Serum uric acid Change from Baseline, Median ([2]; 200 mg bid, Day 7): 0.00
Serum uric acid Actual Value, Mean ([2]; 200 mg bid, Day 14): 5.22
Serum uric acid Actual Value, Median ([2]; 200 mg bid, Day 14): 5.05
Serum uric acid Change from Baseline, Mean ([2]; 200 mg bid, Day 14): −0.01
Serum uric acid Change from Baseline, Median ([2]; 200 mg bid, Day 14): −0.10
Serum uric acid Actual Value, Mean ([2]; 200 mg bid, Day 28): 5.18
Serum uric acid Actual Value, Median ([2]; 200 mg bid, Day 28): 5.00
Serum uric acid Change from Baseline, Mean ([2]; 200 mg bid, Day 28): −0.07
Serum uric acid Change from Baseline, Median ([2]; 200 mg bid, Day 28): −0.10
Serum uric acid Actual Value, Mean ([2]; 200 mg bid, Day 42): 5.46
Serum uric acid Actual Value, Median ([2]; 200 mg bid, Day 42): 5.70
Serum uric acid Change from Baseline, Mean ([2]; 200 mg bid, Day 42): 0.12
Serum uric acid Change from Baseline, Median ([2]; 200 mg bid, Day 42): 0.20
Serum uric acid Actual Value, Mean ([2]; 200 mg bid, Day 56): 5.40
Serum uric acid Actual Value, Median ([2]; 200 mg bid, Day 56): 5.20
Serum uric acid Change from Baseline, Mean ([2]; 200 mg bid, Day 56): 0.02
Serum uric acid Change from Baseline, Median ([2]; 200 mg bid, Day 56): 0.00
Serum uric acid Actual Value, Mean ([2]; 200 mg bid, Day 84): 5.37
Serum uric acid Actual Value, Median ([2]; 200 mg bid, Day 84): 5.30
Serum uric acid Change from Baseline, Mean ([2]; 200 mg bid, Day 84): 0.03
Serum uric acid Change from Baseline, Median ([2]; 200 mg bid, Day 84): 0.10
Effect on serum uric acid levels ([2]; 200 mg twice a day (bid), 3 months, male and female outpatients with irritable bowel syndrome): does not decrease
Serum uric acid levels over time ([2]; up to 3 months after initiation of treatment, 200 mg bid): remained constant
Serum uric acid, baseline adjusted data, Mean [3, 4]: 0
Serum uric acid, baseline adjusted data, Median [3, 4]: 0
Serum uric acid, unadjusted data, Mean [3, 4]: 0.19
Serum uric acid, unadjusted data, Median [3, 4]: 0.19
Serum uric acid, baseline adjusted data, Mean [3, 5]: 0.01
Serum uric acid, baseline adjusted data, Median [3, 5]: 0.01
Serum uric acid, unadjusted data, Mean [3, 5]: 0.20
Serum uric acid, unadjusted data, Median [3, 5]: 0.21
Serum uric acid, baseline adjusted data, Mean [3, 6]: 0.01
Serum uric acid, baseline adjusted data, Median [3, 6]: 0.01
Serum uric acid, unadjusted data, Mean [3, 6]: 0.20
Serum uric acid, unadjusted data, Median [3, 6]: 0.21
Serum uric acid, baseline adjusted data, Mean [3, 7]: 0.01
Serum uric acid, baseline adjusted data, Median [3, 7]: 0.01
Serum uric acid, unadjusted data, Mean [3, 7]: 0.20
Serum uric acid, unadjusted data, Median [3, 7]: 0.20
Serum uric acid, baseline adjusted data, Mean [3, 8]: 0.03
Serum uric acid, baseline adjusted data, Median [3, 8]: 0.03
Serum uric acid, unadjusted data, Mean [3, 8]: 0.23
Serum uric acid, unadjusted data, Median [3, 8]: 0.23
Effect on serum uric acid levels ([3]; 100 mg or 200 mg qd first day, bid Days 2 to 7): does not decrease
Serum uric acid, baseline adjusted data, Mean [3, 9]: −0.01
Serum uric acid, baseline adjusted data, Median [3, 9]: −0.01
Serum uric acid, unadjusted data, Mean [3, 9]: 0.21
Serum uric acid, unadjusted data, Median [3, 9]: 0.21
Serum uric acid, baseline adjusted data, Mean [3, 10]: −0.01
Serum uric acid, baseline adjusted data, Median [3, 10]: −0.01
Serum uric acid, unadjusted data, Mean [3, 10]: 0.21
Serum uric acid, unadjusted data, Median [3, 10]: 0.21
Serum uric acid, baseline adjusted data, Mean [3, 11]: 0
Serum uric acid, baseline adjusted data, Median [3, 11]: 0
Serum uric acid, unadjusted data, Mean [3, 11]: 0.22
Serum uric acid, unadjusted data, Median [3, 11]: 0.22
Serum uric acid, baseline adjusted data, Mean [3, 12]: −0.01
Serum uric acid, baseline adjusted data, Median [3, 12]: 0
Serum uric acid, unadjusted data, Mean [3, 12]: 0.21
Serum uric acid, unadjusted data, Median [3, 12]: 0.21
Serum uric acid, baseline adjusted data, Mean [3, 13]: 0.01
Serum uric acid, baseline adjusted data, Median [3, 13]: 0.01
Serum uric acid, unadjusted data, Mean [3, 13]: 0.22
Serum uric acid, unadjusted data, Median [3, 13]: 0.23
Serum uric acid levels over time ([3]; up to 168 hours (7 days) after initiation of treatment): remained constant
